{"source": "patent US20120177701A1", "about": "“COMPOSITIONS COMPRISING IMMUNOSTIMULATORY NUCLEIC ACIDS AND RELATED METHODS” (priority 2010, published 2012)", "assay_type_in_all_cases": "cell-based", "key": {"human TLR8": {"target": "T1, human TLR8 (Homo sapiens, UniProt Q9NR97)", "T1 construct": "host or cells: HEK293 (HEK-Blue hTLR8) with NF-kB-inducible SEAP reporter", "T1 sequence (Q9NR97 27-1041)": "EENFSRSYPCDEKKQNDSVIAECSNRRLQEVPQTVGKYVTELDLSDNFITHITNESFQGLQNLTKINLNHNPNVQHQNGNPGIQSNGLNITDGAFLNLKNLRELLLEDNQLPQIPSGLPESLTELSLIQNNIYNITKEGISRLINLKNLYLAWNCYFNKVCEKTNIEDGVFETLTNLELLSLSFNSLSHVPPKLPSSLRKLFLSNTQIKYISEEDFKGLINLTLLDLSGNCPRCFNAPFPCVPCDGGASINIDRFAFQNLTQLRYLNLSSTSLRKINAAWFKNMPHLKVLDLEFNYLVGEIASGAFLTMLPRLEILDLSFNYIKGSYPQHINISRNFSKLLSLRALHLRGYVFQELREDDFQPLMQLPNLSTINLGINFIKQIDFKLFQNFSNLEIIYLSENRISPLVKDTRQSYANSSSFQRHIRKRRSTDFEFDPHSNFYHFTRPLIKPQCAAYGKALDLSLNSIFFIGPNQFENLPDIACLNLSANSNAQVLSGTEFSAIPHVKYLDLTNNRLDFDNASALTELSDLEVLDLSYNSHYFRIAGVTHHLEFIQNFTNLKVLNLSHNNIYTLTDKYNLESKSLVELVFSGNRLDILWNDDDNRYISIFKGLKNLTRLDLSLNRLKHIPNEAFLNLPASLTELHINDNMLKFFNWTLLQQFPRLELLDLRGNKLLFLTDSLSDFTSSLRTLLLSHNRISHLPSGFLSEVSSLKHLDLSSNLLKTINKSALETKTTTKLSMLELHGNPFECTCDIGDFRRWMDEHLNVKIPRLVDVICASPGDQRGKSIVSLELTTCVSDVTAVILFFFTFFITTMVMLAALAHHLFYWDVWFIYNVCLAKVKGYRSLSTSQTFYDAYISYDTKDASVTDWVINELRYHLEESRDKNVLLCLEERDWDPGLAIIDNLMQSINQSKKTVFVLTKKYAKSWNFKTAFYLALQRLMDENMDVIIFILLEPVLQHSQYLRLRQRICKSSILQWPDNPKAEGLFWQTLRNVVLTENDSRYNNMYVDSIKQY", "assay": "HEK-Blue hTLR8 NF-kB-inducible SEAP reporter assay (TLR8 activation)"}, "human TLR3": {"target": "T2, human TLR3 (Homo sapiens, UniProt O15455)", "T2 construct": "expressed in transfected cells; host or cells: HEK-Blue hTLR3 (HEK293-derived reporter line)", "T2 sequence (O15455 24-904)": "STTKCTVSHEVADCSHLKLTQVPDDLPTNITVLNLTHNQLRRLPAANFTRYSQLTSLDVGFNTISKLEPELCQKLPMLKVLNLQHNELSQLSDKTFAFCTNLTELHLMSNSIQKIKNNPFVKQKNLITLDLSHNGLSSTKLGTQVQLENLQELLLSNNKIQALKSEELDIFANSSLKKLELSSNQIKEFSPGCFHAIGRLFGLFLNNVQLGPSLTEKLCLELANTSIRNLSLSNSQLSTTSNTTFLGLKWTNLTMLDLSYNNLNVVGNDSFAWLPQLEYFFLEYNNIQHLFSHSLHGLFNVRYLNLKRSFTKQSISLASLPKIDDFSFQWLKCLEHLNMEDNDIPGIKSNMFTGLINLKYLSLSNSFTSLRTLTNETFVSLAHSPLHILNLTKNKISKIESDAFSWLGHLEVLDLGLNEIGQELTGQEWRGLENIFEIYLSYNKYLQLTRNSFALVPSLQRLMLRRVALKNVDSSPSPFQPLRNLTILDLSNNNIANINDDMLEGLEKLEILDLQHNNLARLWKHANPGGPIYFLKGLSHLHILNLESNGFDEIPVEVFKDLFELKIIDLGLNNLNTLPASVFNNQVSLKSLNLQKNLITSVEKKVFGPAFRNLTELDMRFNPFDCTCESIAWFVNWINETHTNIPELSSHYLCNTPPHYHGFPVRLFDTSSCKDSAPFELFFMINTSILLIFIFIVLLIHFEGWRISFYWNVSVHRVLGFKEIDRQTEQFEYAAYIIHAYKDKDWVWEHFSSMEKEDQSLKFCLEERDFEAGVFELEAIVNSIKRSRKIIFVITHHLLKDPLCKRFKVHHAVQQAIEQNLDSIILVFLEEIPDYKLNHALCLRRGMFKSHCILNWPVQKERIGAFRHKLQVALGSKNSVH"}, "human TLR9": {"target": "T3, human TLR9 (Homo sapiens, UniProt Q9NR96)", "T3 construct": "expressed in transfected cells; host or cells: HEK-Blue hTLR9 (HEK293-derived reporter line)", "T3 sequence (Q9NR96 26-1032)": "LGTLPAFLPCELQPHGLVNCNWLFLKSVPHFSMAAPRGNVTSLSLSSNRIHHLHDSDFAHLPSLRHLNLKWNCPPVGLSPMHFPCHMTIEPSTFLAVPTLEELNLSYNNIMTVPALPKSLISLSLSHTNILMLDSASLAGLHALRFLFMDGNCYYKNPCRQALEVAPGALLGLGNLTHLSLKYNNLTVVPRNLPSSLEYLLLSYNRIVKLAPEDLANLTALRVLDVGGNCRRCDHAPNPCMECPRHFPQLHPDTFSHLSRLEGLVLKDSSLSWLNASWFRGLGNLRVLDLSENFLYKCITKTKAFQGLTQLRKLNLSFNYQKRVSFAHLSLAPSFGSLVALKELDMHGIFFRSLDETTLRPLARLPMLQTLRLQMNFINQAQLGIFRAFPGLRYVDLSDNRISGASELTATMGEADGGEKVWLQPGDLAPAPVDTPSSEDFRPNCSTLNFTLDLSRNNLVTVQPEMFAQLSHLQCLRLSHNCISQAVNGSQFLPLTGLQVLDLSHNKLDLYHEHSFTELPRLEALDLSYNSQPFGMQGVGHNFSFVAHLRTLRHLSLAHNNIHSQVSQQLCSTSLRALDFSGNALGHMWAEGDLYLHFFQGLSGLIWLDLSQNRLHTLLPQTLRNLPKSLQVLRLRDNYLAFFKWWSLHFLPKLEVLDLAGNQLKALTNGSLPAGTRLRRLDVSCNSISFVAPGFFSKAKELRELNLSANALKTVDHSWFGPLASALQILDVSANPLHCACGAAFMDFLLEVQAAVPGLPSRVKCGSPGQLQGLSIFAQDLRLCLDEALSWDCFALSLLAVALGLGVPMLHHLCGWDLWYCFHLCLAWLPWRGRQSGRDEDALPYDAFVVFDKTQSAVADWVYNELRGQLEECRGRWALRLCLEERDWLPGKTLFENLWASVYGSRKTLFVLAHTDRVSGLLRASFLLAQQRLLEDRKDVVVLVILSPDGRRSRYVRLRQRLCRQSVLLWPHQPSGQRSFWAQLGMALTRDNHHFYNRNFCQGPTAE"}}, "data": [{"substance": "5′-GAGAUGUUAUUUUGUUUUUAAUAUUUC-3′ (phosphorothioate backbone, further chemistry not given here) [SL-0001, phosphorothioated 27-ribonucleotide from the 3′-terminus of Chikungunya virus strain TSI-GSD-218, bases 12010-12036]", "values": [{"measurement": "TLR8 activation (fold increase of SEAP induction over the background), described in words", "setting": "human TLR8", "value": "stronger levels of TLR8 activation"}, {"measurement": "concentration at which TLR8 activation was detected starting", "setting": "human TLR8", "value": 40, "unit": "nM"}, {"measurement": "activation of SEAP expression", "setting": "human TLR3", "value": "No activation of SEAP expression"}, {"measurement": "activation of SEAP expression", "setting": "human TLR9", "value": "No activation of SEAP expression"}]}]}
